# Target: T1, FAS TE (Homo sapiens, UniProt P49327)
# T1 construct: The unique carboxyl terminal thioesterase domain of fatty acid synthase
# Assay: Fluorogenic Assay for Detection of FASTE Inhibition (4-MUH substrate)
# Format: biochemical
# Details: 500 nM FAS TE, 30 min pre-incubation at 37° C.
# Procedure: Fluorogenic Assay for Detection of FASTE Inhibition
# The synthetic fluorogenic substrate, 4-methylumbelliferyl heptanoate (4-MUH), was purchased from Sigma (St. Louis, Mo.). The reaction mixture consisted of 500 nM FAS TE in buffer (100 mM Tris-HCl, 50 mM NaCl at pH 7.4) which was pre-incubated with 2.5 μL test compounds dissolved in DMSO at final concentrations of […] and/or 0.08-10 μM at 37° C. for 30 minutes. […] 4-MUH incubated without enzyme served as a background control. Results are the average of triplicate time points.
# T1 sequence (P49327 2207-2511 limits assumed): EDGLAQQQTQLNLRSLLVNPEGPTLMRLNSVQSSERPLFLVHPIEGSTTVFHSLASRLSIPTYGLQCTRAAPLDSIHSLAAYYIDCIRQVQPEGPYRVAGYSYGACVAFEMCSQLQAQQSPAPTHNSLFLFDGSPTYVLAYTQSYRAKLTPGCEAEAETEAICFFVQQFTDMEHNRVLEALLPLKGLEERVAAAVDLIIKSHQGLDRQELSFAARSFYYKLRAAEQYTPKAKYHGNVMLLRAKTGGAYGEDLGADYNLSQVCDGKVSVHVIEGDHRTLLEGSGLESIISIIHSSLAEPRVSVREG
row,SMILES,Ki [nM]
1,C=CCC[C@@H](C[C@@H]1OC(=O)[C@H]1CCCCCC)OC(=O)[C@H](Cc1ccccc1)NC=O,220
2,CCCCCCCCCCC[C@@H](O)C[C@@H]1OC(=O)[C@H]1CCCCCC,480
3,CCCCCC[C@@H]1C(=O)O[C@H]1C[C@H](CC/C=C/c1ccc(F)cc1)OC(=O)[C@H](CC(C)C)NC=O,150
4,C=CCC[C@H](CC1OC(=O)[C@H]1CCCCCC)OC(=O)CNC=O (some centres unmarked),60
5,CCCCCCCCCCC[C@H](CC1OC(=O)[C@H]1CCCC)OC(=O)CNC=O (some centres unmarked),160
6,CCCCCC[C@@H]1C(=O)O[C@H]1C[C@H](CC/C=C/COCCOCCOCC(=O)OCc1ccccc1)OC(=O)[C@H](CC(C)C)NC=O,230
7,C=CCC[C@H](C[C@@H]1OC(=O)[C@H]1CCCCCC)OC(=O)CNC=O,530
8,CCCCCCCCCCCCC[C@H](C[C@@H]1OC(=O)[C@@H]1CCCCCC)OC(=O)CNC=O,40
9,CCCCCCCCCCC[C@H](C[C@@H]1OC(=O)[C@H]1CC)OC(=O)CNC=O,230
10,C/C=C/CC[C@@H](C[C@@H]1OC(=O)[C@H]1CCCCCC)OC(=O)[C@H](Cc1ccccc1)NC=O,230
11,CCCCCC[C@@H]1C(=O)O[C@H]1C[C@@H](COS(=O)(=O)c1ccc(C)cc1)OC(=O)CNC=O,100
12,CCCCCC[C@@H]1C(=O)O[C@H]1C[C@@H](C)OC(=O)CNC=O,90
13,CCCCCCCCCCCCC[C@@H](CC1OC(=O)[C@H]1CCCCCC)OC(=O)[C@H](Cc1cnc[nH]1)NC=O (some centres unmarked),170
14,CCCCCCCCCCC[C@@H](C[C@@H]1OC(=O)[C@H]1CC)OC(=O)CNC=O,160
15,CCCCCCC/C=C/CC[C@@H](C[C@@H]1OC(=O)[C@H]1CCCCCC)OC(=O)[C@H](Cc1ccccc1)NC=O,150

# Tested on: MB-MDA-231 cells
# Assay: Cell Viability Assay (MTS), MB-MDA-231
# Format: cell-based
# Details: 3 k 231, 48 h
# Procedure: (§1) Cell Viability Assays for Determination of Test Compound Potencies
# (§2) Plates were incubated for 2 h and absorbance was assayed at 490 nm. Background levels of formazan formation were measured in medium alone. IC50 values were derived from dose-response curves.
row,SMILES,IC50 [µM]
1,C=CCC[C@H](CC1OC(=O)[C@H]1CCCCCC)OC(=O)CNC=O (some centres unmarked),54
2,CCCCCCCCCCC[C@@H](C[C@@H]1OC(=O)[C@H]1CCCCCC)OC(=O)c1ccccc1 [drawing 150],> 100

# Same assay, conditions: 48 h, 3 k 231, 48 h
row,SMILES,IC50 [µM]
1,C=CCC[C@@H](C[C@@H]1OC(=O)[C@H]1CCCCCC)OC(=O)[C@H](Cc1ccccc1)NC=O,24.5
2,CCCCCCCCCCC[C@@H](O)C[C@@H]1OC(=O)[C@H]1CCCCCC,26.8
3,CCCCCC[C@@H]1C(=O)O[C@H]1C[C@H](CC/C=C/c1ccc(F)cc1)OC(=O)[C@H](CC(C)C)NC=O,14.1
4,CCCCCCCCCCC[C@H](CC1OC(=O)[C@H]1CCCC)OC(=O)CNC=O (some centres unmarked),35.7
5,CCCCCC[C@@H]1C(=O)O[C@H]1C[C@H](CC/C=C/COCCOCCOCC(=O)OCc1ccccc1)OC(=O)[C@H](CC(C)C)NC=O,47.3
6,CCCCCCCCCCC[C@H](C[C@@H]1OC(=O)[C@H]1CC)OC(=O)CNC=O,1.3
7,C/C=C/CC[C@@H](C[C@@H]1OC(=O)[C@H]1CCCCCC)OC(=O)[C@H](Cc1ccccc1)NC=O,38.3
8,CCCCCCCCCCCCC[C@@H](CC1OC(=O)[C@H]1CCCCCC)OC(=O)[C@H](Cc1cnc[nH]1)NC=O (some centres unmarked),37.1
9,CCCCCCC/C=C/CC[C@@H](C[C@@H]1OC(=O)[C@H]1CCCCCC)OC(=O)[C@H](Cc1ccccc1)NC=O,> 100

# Tested on: human fibroblast cells
# Assay: Cell Viability Assay (MTS), human fibroblast cells (HFF)
# Format: cell-based
# Details: 3 k HFF, 48 h, read-out: avg 3 k HFF IC50
# Procedure: as §1, §2
row,SMILES,IC50 [µM]
1,C=CCC[C@H](CC1OC(=O)[C@H]1CCCCCC)OC(=O)CNC=O (some centres unmarked),> 100
2,CCCCCCCCCCC[C@@H](C[C@@H]1OC(=O)[C@H]1CCCCCC)OC(=O)c1ccccc1 [drawing 150],> 100

# Same assay, conditions: 50 k HFF, 48 h, read-out: avg 50 k HFF IC50
row,SMILES,IC50 [µM]
1,C=CCC[C@H](CC1OC(=O)[C@H]1CCCCCC)OC(=O)CNC=O (some centres unmarked),> 100
2,CCCCCCCCCCC[C@@H](C[C@@H]1OC(=O)[C@H]1CCCCCC)OC(=O)c1ccccc1 [drawing 150],> 100

# Same assay, conditions: Homo sapiens, Fibroblast, 48 h, 3 k HFF, read-out: avg 3 k HFF IC50
row,SMILES,IC50 [µM]
1,C=CCC[C@@H](C[C@@H]1OC(=O)[C@H]1CCCCCC)OC(=O)[C@H](Cc1ccccc1)NC=O,73.6
2,CCCCCCCCCCC[C@@H](O)C[C@@H]1OC(=O)[C@H]1CCCCCC,40.4
3,CCCCCC[C@@H]1C(=O)O[C@H]1C[C@H](CC/C=C/c1ccc(F)cc1)OC(=O)[C@H](CC(C)C)NC=O,32.9
4,CCCCCCCCCCC[C@H](CC1OC(=O)[C@H]1CCCC)OC(=O)CNC=O (some centres unmarked),31.1
5,CCCCCC[C@@H]1C(=O)O[C@H]1C[C@H](CC/C=C/COCCOCCOCC(=O)OCc1ccccc1)OC(=O)[C@H](CC(C)C)NC=O,70.4
6,C/C=C/CC[C@@H](C[C@@H]1OC(=O)[C@H]1CCCCCC)OC(=O)[C@H](Cc1ccccc1)NC=O,61.2
7,CCCCCCCCCCCCC[C@@H](CC1OC(=O)[C@H]1CCCCCC)OC(=O)[C@H](Cc1cnc[nH]1)NC=O (some centres unmarked),15.8
8,CCCCCCC/C=C/CC[C@@H](C[C@@H]1OC(=O)[C@H]1CCCCCC)OC(=O)[C@H](Cc1ccccc1)NC=O,24.9

# Same assay, conditions: Homo sapiens, Fibroblast, 48 h, 50 k HFF, read-out: avg 50 k HFF IC50
row,SMILES,IC50 [µM]
1,C=CCC[C@@H](C[C@@H]1OC(=O)[C@H]1CCCCCC)OC(=O)[C@H](Cc1ccccc1)NC=O,65
2,CCCCCCCCCCC[C@@H](O)C[C@@H]1OC(=O)[C@H]1CCCCCC,29.3
3,CCCCCC[C@@H]1C(=O)O[C@H]1C[C@H](CC/C=C/c1ccc(F)cc1)OC(=O)[C@H](CC(C)C)NC=O,49.9
4,CCCCCCCCCCC[C@H](CC1OC(=O)[C@H]1CCCC)OC(=O)CNC=O (some centres unmarked),43.2
5,CCCCCC[C@@H]1C(=O)O[C@H]1C[C@H](CC/C=C/COCCOCCOCC(=O)OCc1ccccc1)OC(=O)[C@H](CC(C)C)NC=O,> 100
6,CCCCCCCCCCC[C@H](C[C@@H]1OC(=O)[C@H]1CC)OC(=O)CNC=O,9.7
7,C/C=C/CC[C@@H](C[C@@H]1OC(=O)[C@H]1CCCCCC)OC(=O)[C@H](Cc1ccccc1)NC=O,52.5
8,CCCCCCCCCCCCC[C@@H](CC1OC(=O)[C@H]1CCCCCC)OC(=O)[C@H](Cc1cnc[nH]1)NC=O (some centres unmarked),28
9,CCCCCCC/C=C/CC[C@@H](C[C@@H]1OC(=O)[C@H]1CCCCCC)OC(=O)[C@H](Cc1ccccc1)NC=O,35.9
